The text below walks through data of PMC4718910 (SpringerPlus, 2016).

Read-outs that look alike come from different tables or passages of the source.

Series [1] relates to HER2-positive metastatic breast cancer (MBC). Also noted: method as in Lin et al. [2012]. To be noted: afatinib monotherapy 50 mg/day, heavily pre-treated HER2-positive MBC after trastuzumab; ref Lin et al. [2012]; cited from earlier work.
Series [2] in a line: Letrozole plasma pharmacokinetics (HPLC-MS/MS). Format: in vivo, human. Here is the method: For quantification of drug plasma concentrations, 5 mL of venous blood was collected. […] Letrozole plasma concentrations were determined by a validated HPLC–MS/MS assay at Nuvisan Pharma Services GmbH & Co. KG, Neu-Ulm, Germany.
The next series relates to ErbB4. To be noted: read-out: half maximal inhibitory concentration, ErbB4; ref Li et al. [2008]; cited from earlier work.
The subject of another series is ErbB3. On the set-up: method as in Li et al. [2008]. To be noted: ref Li et al. [2008]; cited from earlier work.
Series [3] in a line: Afatinib plasma pharmacokinetics (HPLC-MS/MS). Format: in vivo, human. To be noted: for AUC / Tmax: human, plasma, po; for AUC: read-out: AUCtau,ss, geometric mean; for Tmax: read-out: tmax,ss, median.
A further series relates to HER2. To be noted: read-out: half maximal inhibitory concentration, HER2; ref Li et al. [2008]; cited from earlier work.
Another series has as its system ER/PgR/HER2-positive MBC. On the set-up: method as in Kaufman et al. [2009]. To be noted: N 207, ref Kaufman et al. [2009]; cited from earlier work.
In a further series the test system is ER/PgR-positive MBC. On the set-up: method as in Huober et al. [2012]. To be noted: ref Huober et al. [2012], cited from earlier work.
Series [4] has as its system ER/PgR-positive HER2-negative MBC. Also noted: method as in Bachelot et al. [2012]. To be noted: aromatase inhibitor-resistant, N 111; ref Bachelot et al. [2012]; cited from earlier work.
Setting [5] is: Afatinib 30 mg multiple oral administrations with letrozole 2.5 mg, N 5.
The mark [6] stands for this setting: Afatinib 40 mg multiple oral administrations with letrozole 2.5 mg, N 4.
The mark [7] stands for this setting: ER/PgR-positive HER2-negative MBC, N 35.

In general, Tmax refers to the time at which the peak concentration occurs. Take `CN(C)C/C=C/C(=O)Nc1cc2c(Nc3ccc(F)c(Cl)c3)ncnc2cc1O[C@H]1CCOC1` [Afatinib]: the “Median PFS” value in series [1] is 15 weeks. The “overall survival (OS)” value in series [1] is 61 weeks. Moreover, the “effect of afatinib on letrozole exposure” value in series [2] (letrozole trough and 2-h post-dose plasma concentrations, screening period vs afatinib treatment period) is “no effect”. In addition, the results for the IC50 in the series on ErbB4 and in the series on HER2 were […] and 14 nM, respectively. In addition, in the series on ErbB3, the ErbB3 transphosphorylation entry is recorded as “inhibits ErbB3 transphosphorylation”. Also, the “Cpre,ss, 57, geometric mean” value in series [3] (Afatinib 30 mg with letrozole 2.5 mg, pre-dose day 1 of cycle 3, N 8) was found to be 15.8 ng/mL; in [3] (Afatinib 40 mg with letrozole 2.5 mg, pre-dose day 1 of cycle 3, N 5), 21.4 ng/mL. Moreover, the “Cpre,ss, 85, geometric mean” value in series [3] (Afatinib 30 mg with letrozole 2.5 mg, pre-dose day 1 of cycle 4, N 5) is reported as 17.3 ng/mL; in series [3] (Afatinib 40 mg with letrozole 2.5 mg, pre-dose day 1 of cycle 4, N 4), 16.9 ng/mL. Besides, the AUC in [3] (setting [5]) is 579 ng·h/mL; in [3] (setting [6]) it was 660 ng·h/mL. In addition, the Tmax is 4 h in series [3] (setting [5]) and 2 h in series [3] (setting [6]).
With `CC(C)(C#N)c1cc(Cn2cncn2)cc(C(C)(C)C#N)c1` [Anastrozole], the “Median PFS (independent assessment)” value in the series on ER/PgR/HER2-positive MBC is 2.4 (independent assessment) months.
In general, Cmax refers to the maximum level reached in the sampled fluid or tissue. Take `N#Cc1ccc(C(c2ccc(C#N)cc2)n2cncn2)cc1` [Letrozole]: the AUC in [2] (human, plasma, oral, 2.5 mg, read-out: geometric mean AUCtau,ss) worked out at 2420 ng·h/mL. In addition, the Cmax in [2] (human, plasma, oral, 2.5 mg, read-out: geometric mean Cmax,ss) worked out at 135 ng/mL. Also, in the series on ER/PgR-positive MBC (setting [7]), the “Grade ≥3 bone pain” value is on record as “Bone pain 6%” and the “Median PFS” value was 15.2 months. The “Median PFS” value with ER/PgR-positive MBC (ER/PgR/HER2-positive MBC, first-line) was 3.3 months. Moreover, in the series with ER/PgR-positive MBC (ER/PgR/HER2-positive MBC), the “Grade ≥3 bone pain” value is on record as 7% and the “Grade ≥3 dyspnea” value is given as 7%.
With `CC/C(=C(\c1ccccc1)c1ccc(OCCN(C)C)cc1)c1ccccc1` [Tamoxifen], the Clinical benefit rate result in series [4] was “Clinical benefit rate = 42%”.
